The source of these data is patent publication US20230146675A1, “PYRIMIDO[5,4-d]PYRIMIDINE DERIVATIVES AS ENT INHIBITORS FOR THE TREATMENT OF CANCERS, AND COMBINATION THEREOF WITH ADENOSINE RECEPTOR ANTAGONISTS” (ITEOS BELGIUM SA, priority 2020, published 2023).

By IC50 is commonly meant the concentration at which inhibition is half-maximal. Read a low IC50 as greater potency.

One assay deals with T1, human ENT1 (Homo sapiens, UniProt Q99808).
T1 sequence (Q99808 1-456): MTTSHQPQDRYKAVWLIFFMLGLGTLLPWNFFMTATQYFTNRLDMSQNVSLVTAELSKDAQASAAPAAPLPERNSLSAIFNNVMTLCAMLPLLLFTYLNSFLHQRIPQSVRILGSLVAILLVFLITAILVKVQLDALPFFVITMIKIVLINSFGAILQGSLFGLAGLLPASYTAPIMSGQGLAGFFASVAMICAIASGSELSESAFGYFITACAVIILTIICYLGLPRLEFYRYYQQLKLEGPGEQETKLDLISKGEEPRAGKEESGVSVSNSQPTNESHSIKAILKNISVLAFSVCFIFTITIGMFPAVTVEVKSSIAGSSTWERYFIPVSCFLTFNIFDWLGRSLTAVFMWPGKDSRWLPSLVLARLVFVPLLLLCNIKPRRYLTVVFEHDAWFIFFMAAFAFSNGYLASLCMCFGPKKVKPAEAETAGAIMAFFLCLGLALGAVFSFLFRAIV
The assay can be described thus: Uridine transport inhibition assay (3H-uridine uptake, MDCKII-ENT1-LV cells). The class given is cell-based. To be noted: 3H-uridine (1 μM), 1 min at 25° C. From the text: Purpose. The aim of this study was to determine the potency of equilibrative nucleoside transporter 1 (ENT1) inhibitors by measuring ENT1-mediated transport is the cellular uptake assay. The human ENT1 transporter can be stably expressed in Madin-Darby Canine Kidney II (MDCKII) cells via transduction. Uridine is efficiently transported by ENT1 and is used as probe in the assay as 3H-uridine. The interaction is detected as the modulation of the initial rate of 3H-uridine transport by human ENT1 into MDCKII-ENT1-LV cells stably expressing ENT1 uptake transporter.

The target in assay [1] is T2, Human phosphodiesterase-8A1 (Homo sapiens, UniProt O60658).
T2 construct: host or cells: Sf9 cells
T2 sequence (O60658 whole entry): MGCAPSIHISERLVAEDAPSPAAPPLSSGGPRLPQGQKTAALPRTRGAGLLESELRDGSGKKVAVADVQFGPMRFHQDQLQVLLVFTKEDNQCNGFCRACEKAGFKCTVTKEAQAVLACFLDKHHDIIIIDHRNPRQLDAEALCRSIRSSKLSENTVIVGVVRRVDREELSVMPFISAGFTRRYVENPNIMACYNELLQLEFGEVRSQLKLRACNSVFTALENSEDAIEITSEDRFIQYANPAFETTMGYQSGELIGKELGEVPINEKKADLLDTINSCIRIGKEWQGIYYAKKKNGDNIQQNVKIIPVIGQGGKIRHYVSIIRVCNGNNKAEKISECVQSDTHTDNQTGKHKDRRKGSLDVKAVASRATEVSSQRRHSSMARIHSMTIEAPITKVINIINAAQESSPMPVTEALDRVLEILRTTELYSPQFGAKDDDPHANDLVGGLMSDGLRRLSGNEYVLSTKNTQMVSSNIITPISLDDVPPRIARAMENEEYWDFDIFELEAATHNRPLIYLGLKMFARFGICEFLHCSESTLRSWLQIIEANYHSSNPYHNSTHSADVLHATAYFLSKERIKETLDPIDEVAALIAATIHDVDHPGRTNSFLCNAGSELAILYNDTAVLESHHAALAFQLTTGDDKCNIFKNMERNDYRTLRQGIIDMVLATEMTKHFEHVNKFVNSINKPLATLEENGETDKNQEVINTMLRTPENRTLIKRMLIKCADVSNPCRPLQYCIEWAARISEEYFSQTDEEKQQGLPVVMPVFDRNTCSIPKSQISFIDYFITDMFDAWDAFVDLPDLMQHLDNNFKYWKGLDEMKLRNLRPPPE
Kind of assay: PDE8A1 (h) assay. The class given is biochemical. The protocol:
The test compound (compound 72), reference compound or water (control) were added to a buffer containing 40 mM Tris/HCl (pH 7.4) and 8 mM MgCl2, 63 nM cAMP and 0.035 μCi [3H]cAMP. Thereafter, the reaction was initiated by addition of the enzyme (about 0.6 U) and the mixture was incubated for 20 min at 22° C. For basal control measurements, the enzyme was omitted from the reaction mixture. Following incubation SPA beads were added. After 30 min at 22° C. under shaking, the amount of [3H]5′AMP was quantified with a scintillation counter (MicroBeta, Perkin Elmer). The results were expressed as a percent inhibition of the control enzyme activity. The standard inhibitory reference compound was BRL50481, which was tested in each experiment at several concentrations to obtain an inhibition curve from which its IC50 value was calculated. • Human phosphodiesterase-8A1 quantified by measuring the formation of 5′AMP from cAMP using a human recombinant enzyme expressed in Sf9 cells
The test compound (compound 72), reference compound or water (control) were added to a buffer containing 40 mM Tris/HCl (pH 7.4) and 8 mM MgCl2, 180 nM cAMP and 0.1 μCi [3H]cAMP. […] After 30 min at 22° C. under shaking, the amount of [3H]5′AMP was quantified with a scintillation counter (MicroBeta, Perkin Elmer). The results were expressed as a percent inhibition of the control enzyme activity. […]

In assay [2] the target is T3, Human phosphodiesterase-1B (Homo sapiens, UniProt Q01064).
T3 construct: host or cells: Sf9 cells
Kind of assay: PDE1B (h) assay. The class given is biochemical. The protocol:
Method. • Human phosphodiesterase-1B quantified by measuring the formation of 5′GMP from cGMP using a human recombinant enzyme expressed in Sf9 cells
The test compound (compound 72), reference compound or water (control) were added to a buffer containing 40 mM Tris/HCl (pH 7.4), 8 mM MgCl2 0.21% BSA, 0.5 μg/ml calmoduline and 0.5 mM CaCl2), 1.125 μM cGMP and 0.027 μCi [3H]cGMP. Thereafter, the reaction was initiated by addition of the enzyme (about 0.2 U) and the mixture was incubated for 20 min at 22° C. For basal control measurements, the enzyme was omitted from the reaction mixture. Following incubation SPA beads were added. After 30 min at 22° C. under shaking, the amount of [3H]5′GMP was quantified with a scintillation counter (MicroBeta, Perkin Elmer). The results were expressed as a percent inhibition of the control enzyme activity. The standard inhibitory reference compound was Nitrendipine, which was tested in each experiment at several concentrations to obtain an inhibition curve from which its IC50 value was calculated. • Human phosphodiesterase-5 quantified by measuring the formation of 5′GMP from cGMP using an enzyme isolated from human platelets at Eurofins-Cerep.

The target in assay [3] is T4, Human phosphodiesterase-3B (Homo sapiens, UniProt Q13370).
T4 construct: host or cells: Sf9 cells
T4 sequence (Q13370 whole entry): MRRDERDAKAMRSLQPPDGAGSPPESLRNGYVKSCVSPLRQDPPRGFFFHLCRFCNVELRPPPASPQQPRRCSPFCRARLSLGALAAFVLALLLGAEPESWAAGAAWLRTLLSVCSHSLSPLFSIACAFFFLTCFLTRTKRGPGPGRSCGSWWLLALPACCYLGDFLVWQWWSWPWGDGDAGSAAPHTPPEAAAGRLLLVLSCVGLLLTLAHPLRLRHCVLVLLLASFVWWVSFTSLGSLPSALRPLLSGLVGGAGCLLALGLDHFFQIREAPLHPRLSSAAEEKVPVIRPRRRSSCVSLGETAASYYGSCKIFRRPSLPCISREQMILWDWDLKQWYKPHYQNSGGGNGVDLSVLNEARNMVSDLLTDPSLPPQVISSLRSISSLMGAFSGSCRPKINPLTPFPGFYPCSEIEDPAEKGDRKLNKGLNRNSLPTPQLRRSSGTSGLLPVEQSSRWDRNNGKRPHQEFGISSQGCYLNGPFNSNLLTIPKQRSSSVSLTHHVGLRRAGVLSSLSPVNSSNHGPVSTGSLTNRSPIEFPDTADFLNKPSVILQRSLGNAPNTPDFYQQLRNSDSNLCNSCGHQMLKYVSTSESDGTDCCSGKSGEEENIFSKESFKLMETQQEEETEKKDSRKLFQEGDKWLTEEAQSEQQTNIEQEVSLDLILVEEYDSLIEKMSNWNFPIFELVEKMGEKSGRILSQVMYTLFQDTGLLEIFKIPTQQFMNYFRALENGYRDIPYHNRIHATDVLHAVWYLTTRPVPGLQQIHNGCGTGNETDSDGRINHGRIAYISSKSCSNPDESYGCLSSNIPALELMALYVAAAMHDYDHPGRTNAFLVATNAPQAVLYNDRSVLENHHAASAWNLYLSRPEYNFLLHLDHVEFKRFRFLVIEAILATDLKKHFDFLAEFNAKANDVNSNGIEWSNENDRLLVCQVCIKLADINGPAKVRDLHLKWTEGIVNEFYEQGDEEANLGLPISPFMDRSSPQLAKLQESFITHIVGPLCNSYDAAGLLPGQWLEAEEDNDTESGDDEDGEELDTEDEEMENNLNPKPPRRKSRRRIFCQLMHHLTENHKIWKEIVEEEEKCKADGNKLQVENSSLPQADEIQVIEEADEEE
Kind of assay: PDE3B (h) assay. The class given is biochemical. The protocol: The test compound (compound 72), reference compound or water (control) were added to a buffer containing 40 mM Tris/HCl (pH 7.8), 3 mM MgCl2, 1.4 mM DTT, 0.21% BSA, 200 mM NH4Cl, 2 μM cGMP and 0.05 μCi [3H]cGMP. Thereafter, the reaction was initiated by addition of the enzyme (final amount depending on the efficiency of the isolation) and the mixture was incubated for 60 min at 22° C. For basal control measurements, the enzyme was omitted from the reaction mixture. Following incubation SPA beads were added. After 20 min at 22° C. under shaking, the amount of [3H]5′GMP was quantified with a scintillation counter (Topcount, Packard). The results were expressed as a percent inhibition of the control enzyme activity. The standard inhibitory reference compound was zaprinast, which was tested in each experiment at several concentrations to obtain an inhibition curve from which its IC50 value was calculated. • Human phosphodiesterase-3B quantified by measuring the formation of 5′AMP from cAMP using a human recombinant enzyme expressed in Sf9 cells
The test compound (compound 72), reference compound or water (control) were added to a buffer containing 40 mM Tris/HCl (pH 7.4) and 8 mM MgCl2, 450 nM cAMP and 0.25 μCi [3H]cAMP. […] After 30 min at 22° C. under shaking, the amount of [3H]5′AMP was quantified with a scintillation counter (MicroBeta, Perkin Elmer). […]

Take `COCCN(CCOC)c1nc(N2CCN(C)C(=O)C2)c2nc(N(CCOC)CCOC)nc(N3CCC(OC)CC3)c2n1` [Compound 72, 4-(2,6-bis(bis(2-methoxyethyl)amino)-8-(4-methoxypiperidin-1-yl)pyrimido[5,4-d]pyrimidin-4-yl)-1-methylpiperazin-2-one]: the IC50 against human ENT1 is < 0.1 µM; in assay [1] it was > 10 µM; in assay [2] it was > 10 µM; in assay [3] it was > 10 µM.
